Assay results published in patent US8952024B2, “Herbicidal pyrimidone derivatives” (E I du Pont de Nemours and Company, priority 2009, dated 2015).
Where two headings read alike, the source gives them in different places.

Columns and labels:
Assay in all cases: Test B pre-/postemergence plant response
Format in all cases: in vivo
[1] = tested on: Surinam grass (Brachiaria decumbens); settings: for pest or weed control at 31 g/ha: 31 g ai/ha; for pest or weed control at 125 g/ha: 125 g ai/ha
Outline: (§1)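 Seeds sown in loam–sand blend were treated preemergence, and plants at 2–18 cm (1- to 4-leaf stage) in peat-based medium were treated postemergence; compounds were formulated in non-phytotoxic solvent with surfactant. After 13–15 days in greenhouse, response was visually rated against controls, 0 (no effect) to 100 (complete control).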

[2] = tested on: giant foxtail (Setaria faberii); settings: for pest or weed control at 31 g/ha: 31 g ai/ha; for pest or weed control at 125 g/ha: 125 g ai/ha
Outline: as §1

[3] = tested on: morningglory (Ipomoea coccinea); settings: for pest or weed control at 125 g/ha: 125 g ai/ha
Outline: as §1

[4] = tested on: woolly cupgrass (Eriochloa villosa); settings: for pest or weed control at 31 g/ha: 31 g ai/ha; for pest or weed control at 125 g/ha: 125 g ai/ha
Outline: as §1

soybean (Glycine max) = tested on: soybean (Glycine max)
Outline: as §1

kochia (Kochia scoparia) = settings: for pest or weed control at 31 g/ha: 31 g ai/ha; for pest or weed control at 125 g/ha: 125 g ai/ha
Outline: as §1

[5] = tested on: yellow nutsedge (Cyperus esculentus); settings: for pest or weed control at 31 g/ha: 31 g ai/ha; for pest or weed control at 125 g/ha: 125 g ai/ha
Outline: as §1

[6] = tested on: downy bromegrass (Bromus tectorum); settings: for pest or weed control at 31 g/ha: 31 g ai/ha; for pest or weed control at 125 g/ha: 125 g ai/ha
Outline: as §1

[7] = tested on: blackgrass (Alopecurus myosuroides); settings: for pest or weed control at 31 g/ha: 31 g ai/ha
Outline: as §1

[8] = 62 g ai/ha, postemergence, 0 is no effect, 100 is complete control, 13 to 15 days
[9] = Preemergence, 250 g ai/ha, 0 to 100 scale

For COCCCn1c(-c2ccccc2)ncc(C(=O)C2=C(O)CCCC2=O)c1=O [Compound 81, 5-[(2-hydroxy-6-oxo-cyclohexen-1-yl)carbonyl]-3-(3-methoxypropyl)-2-phenyl-4(3H)-pyrimidinone], the “Surinam Grass plant response rating (0 to 100 scale)” value [1, 8] was 90, the “Surinam Grass plant response rating” value [1, 9] was 100 and the pest or weed control at 31 g/ha ([1]; Urochloa decumbens, post-emergence, postemergence, scale 0 to 100, 0 is no effect, 100 is complete control, read-out: Plant response rating, Surinam Grass) was 75%. For the same compound, the pest or weed control at 125 g/ha ([1]; Urochloa decumbens, post-emergence, Postemergence, visual rating after 13 to 15 days, scale 0 (no effect) to 100 (complete control)) was 98%, the pest or weed control at 250 g/ha ([1]; Urochloa decumbens, post-emergence, Postemergence, 250 g ai/ha, scale 0 to 100 (0 no effect, 100 complete control), read-out: Plant response rating, Surinam Grass) was 100% and the pest or weed control at 31 g/ha ([1]; Urochloa decumbens, pre-emergence, Preemergence, scale 0 to 100 (0 no effect, 100 complete control), read-out: Plant response rating, Surinam Grass) was 98%. For the same compound, the pest or weed control at 62 g/ha ([1]; Urochloa decumbens, pre-emergence, Preemergence, 62 g ai/ha, scale 0 to 100 (0 no effect, 100 complete control), read-out: Plant response rating, Surinam Grass) was 100%, the pest or weed control at 125 g/ha ([1]; Urochloa decumbens, pre-emergence, Preemergence, scale 0 to 100, 0 no effect, 100 complete control, read-out: Plant response rating, Surinam Grass) was 100% and the “Foxtail, Giant plant response rating (0 to 100 scale)” value [2, 8] was 85. For the same compound, the “Foxtail, Giant plant response rating” value [2, 9] was 98, the pest or weed control at 31 g/ha ([2]; Setaria faberi, post-emergence, postemergence, scale 0 to 100, 0 is no effect, 100 is complete control, read-out: Plant response rating, Foxtail, Giant) was 75% and the pest or weed control at 125 g/ha ([2]; Setaria faberi, post-emergence, Postemergence, visual rating after 13 to 15 days, scale 0 (no effect) to 100 (complete control)) was 95%. For the same compound, the pest or weed control at 250 g/ha ([2]; Setaria faberi, post-emergence, Postemergence, 250 g ai/ha, scale 0 to 100 (0 no effect, 100 complete control), read-out: Plant response rating, Foxtail, Giant) was 98%, the pest or weed control at 31 g/ha ([2]; Setaria faberi, pre-emergence, Preemergence, scale 0 to 100 (0 no effect, 100 complete control), read-out: Plant response rating, Foxtail, Giant) was 60% and the pest or weed control at 62 g/ha ([2]; Setaria faberi, pre-emergence, Preemergence, 62 g ai/ha, scale 0 to 100, 0 no effect, 100 complete control, read-out: Plant response rating, Foxtail, Giant) was 75%. The pest or weed control at 125 g/ha ([2]; Setaria faberi, pre-emergence, Preemergence, scale 0 to 100, 0 no effect, 100 complete control, read-out: Plant response rating, Foxtail, Giant) was 85%, the “Morningglory plant response rating (0 to 100 scale)” value [3, 8] was 90 and the pest or weed control at 31 g/ha ([3]; Ipomoea, post-emergence, 31 g ai/ha, postemergence, scale 0 to 100, 0 is no effect, 100 is complete control, read-out: Plant response rating, Morningglory) was 75%. It also gave a pest or weed control at 125 g/ha ([3]; Ipomoea, post-emergence, Postemergence, visual rating after 13 to 15 days, scale 0 (no effect) to 100 (complete control)) of 100%, a pest or weed control at 250 g/ha ([3]; Ipomoea, post-emergence, Postemergence, 250 g ai/ha, scale 0 to 100 (0 no effect, 100 complete control), read-out: Plant response rating, Morningglory) of 100% and a pest or weed control at 62 g/ha ([3]; Ipomoea, pre-emergence, Preemergence, 62 g ai/ha, scale 0 to 100, 0 no effect, 100 complete control, read-out: Plant response rating, Morningglory) of 65%. For the same compound, the pest or weed control at 125 g/ha ([3]; Ipomoea, pre-emergence, Preemergence, scale 0 to 100, 0 no effect, 100 complete control, read-out: Plant response rating, Morningglory) was 80%, the “Morningglory plant response rating” value [3, 9] was 95 and the “Cupgrass, Woolly plant response rating (0 to 100 scale)” value [4, 8] was 75. For the same compound, the pest or weed control at 31 g/ha ([4]; Eriochloa villosa, post-emergence, postemergence, scale 0 to 100, 0 is no effect, 100 is complete control, read-out: Plant response rating, Cupgrass, Woolly) was 65%, the pest or weed control at 125 g/ha ([4]; Eriochloa villosa, post-emergence, Postemergence, visual rating after 13 to 15 days, scale 0 (no effect) to 100 (complete control)) was 90% and the pest or weed control at 250 g/ha ([4]; Eriochloa villosa, post-emergence, Postemergence, 250 g ai/ha, scale 0 to 100 (0 no effect, 100 complete control), read-out: Plant response rating, Cupgrass, Woolly) was 90%. For the same compound, the pest or weed control at 31 g/ha ([4]; Eriochloa villosa, pre-emergence, Preemergence, scale 0 to 100 (0 no effect, 100 complete control), read-out: Plant response rating, Cupgrass, Woolly) was 40%, the pest or weed control at 62 g/ha ([4]; Eriochloa villosa, pre-emergence, Preemergence, 62 g ai/ha, scale 0 to 100, 0 no effect, 100 complete control, read-out: Plant response rating, Cupgrass, Woolly) was 55% and the pest or weed control at 125 g/ha ([4]; Eriochloa villosa, pre-emergence, Preemergence, scale 0 to 100, 0 no effect, 100 complete control, read-out: Plant response rating, Cupgrass, Woolly) was 75%. For the same compound, the “Cupgrass, Woolly plant response rating” value [4, 9] was 85, the “Soybean plant response rating (0 to 100 scale)” value (soybean (Glycine max); [8]) was 95 and the plant injury at 31 g/ha (soybean (Glycine max); Glycine max, post-emergence, 31 g ai/ha, postemergence, scale 0 to 100, 0 is no effect, 100 is complete control, read-out: Plant response rating, Soybean) was 85%. For the same compound, the plant injury at 125 g/ha (soybean (Glycine max); Glycine max, post-emergence, Postemergence, 125 g ai/ha, visual rating after 13 to 15 days, scale 0 (no effect) to 100 (complete control)) was 95%, the plant injury at 250 g/ha (soybean (Glycine max); Glycine max, post-emergence, Postemergence, 250 g ai/ha, scale 0 to 100 (0 no effect, 100 complete control), read-out: Plant response rating, Soybean) was 98% and the “Kochia plant response rating (0 to 100 scale)” value (kochia (Kochia scoparia); [8]) was 80. It also gave a pest or weed control at 31 g/ha (kochia (Kochia scoparia); Bassia scoparia, post-emergence, postemergence, scale 0 to 100, 0 is no effect, 100 is complete control, read-out: Plant response rating, Kochia) of 75%, a pest or weed control at 125 g/ha (kochia (Kochia scoparia); Bassia scoparia, post-emergence, Postemergence, visual rating after 13 to 15 days, scale 0 (no effect) to 100 (complete control)) of 90% and a pest or weed control at 250 g/ha (kochia (Kochia scoparia); Bassia scoparia, post-emergence, Postemergence, 250 g ai/ha, scale 0 to 100 (0 no effect, 100 complete control), read-out: Plant response rating, Kochia) of 100%. It also gave a pest or weed control at 31 g/ha (kochia (Kochia scoparia); Bassia scoparia, pre-emergence, Preemergence, scale 0 to 100 (0 no effect, 100 complete control), read-out: Plant response rating, Kochia) of 45%, a pest or weed control at 62 g/ha (kochia (Kochia scoparia); Bassia scoparia, pre-emergence, Preemergence, 62 g ai/ha, scale 0 to 100 (0 no effect, 100 complete control), read-out: Plant response rating, Kochia) of 55% and a pest or weed control at 125 g/ha (kochia (Kochia scoparia); Bassia scoparia, pre-emergence, Preemergence, scale 0 to 100, 0 no effect, 100 complete control, read-out: Plant response rating, Kochia) of 65%. The “Kochia plant response rating” value (kochia (Kochia scoparia); [9]) was 70, the “Nutsedge, Yellow plant response rating (0 to 100 scale)” value [5, 8] was 80 and the pest or weed control at 31 g/ha ([5]; Cyperus, post-emergence, postemergence, scale 0 to 100, 0 is no effect, 100 is complete control, read-out: Plant response rating, Nutsedge, Yellow) was 65%. The pest or weed control at 125 g/ha ([5]; Cyperus, post-emergence, Postemergence, visual rating after 13 to 15 days, scale 0 (no effect) to 100 (complete control)) was 80%, the pest or weed control at 250 g/ha ([5]; Cyperus, post-emergence, Postemergence, 250 g ai/ha, scale 0 to 100 (0 no effect, 100 complete control), read-out: Plant response rating, Nutsedge, Yellow) was 80% and the pest or weed control at 31 g/ha ([5]; Cyperus, pre-emergence, Preemergence, scale 0 to 100 (0 no effect, 100 complete control), read-out: Plant response rating, Nutsedge, Yellow) was 10%. The pest or weed control at 62 g/ha ([5]; Cyperus, pre-emergence, Preemergence, 62 g ai/ha, scale 0 to 100 (0 no effect, 100 complete control), read-out: Plant response rating, Nutsedge, Yellow) was 75%, the pest or weed control at 125 g/ha ([5]; Cyperus, pre-emergence, Preemergence, scale 0 to 100, 0 no effect, 100 complete control, read-out: Plant response rating, Nutsedge, Yellow) was 95% and the “Nutsedge, Yellow plant response rating” value [5, 9] was 95. The “Bromegrass, Downy plant response rating (0 to 100 scale)” value [6, 8] was 5, the pest or weed control at 31 g/ha ([6]; Bromus tectorum, post-emergence, postemergence, scale 0 to 100, 0 is no effect, 100 is complete control, read-out: Plant response rating, Bromegrass, Downy) was 5% and the pest or weed control at 125 g/ha ([6]; Bromus tectorum, post-emergence, Postemergence, visual rating after 13 to 15 days, scale 0 (no effect) to 100 (complete control)) was 30%. For the same compound, the pest or weed control at 250 g/ha ([6]; Bromus tectorum, post-emergence, Postemergence, 250 g ai/ha, scale 0 to 100 (0 no effect, 100 complete control), read-out: Plant response rating, Bromegrass, Downy) was 50%, the pest or weed control at 31 g/ha ([6]; Bromus tectorum, pre-emergence, Preemergence, scale 0 to 100 (0 no effect, 100 complete control), read-out: Plant response rating, Bromegrass, Downy) was 0% and the pest or weed control at 62 g/ha ([6]; Bromus tectorum, pre-emergence, Preemergence, 62 g ai/ha, scale 0 to 100, 0 no effect, 100 complete control, read-out: Plant response rating, Bromegrass, Downy) was 0%. For the same compound, the pest or weed control at 125 g/ha ([6]; Bromus tectorum, pre-emergence, Preemergence, scale 0 to 100, 0 no effect, 100 complete control, read-out: Plant response rating, Bromegrass, Downy) was 0%, the “Bromegrass, Downy plant response rating” value [6, 9] was 0 and the “Blackgrass plant response rating (0 to 100 scale)” value [7, 8] was 10. For the same compound, the pest or weed control at 31 g/ha ([7]; Alopecurus myosuroides, post-emergence, 360 h, postemergence, scale 0 to 100, 0 is no effect, 100 is complete control, read-out: Plant response rating, Blackgrass) was 5%, the pest or weed control at 125 g/ha ([7]; Alopecurus myosuroides, post-emergence, 360 h, Postemergence, 125 g ai/ha, visual rating after 13 to 15 days, scale 0 (no effect) to 100 (complete control)) was 30% and the pest or weed control at 250 g/ha ([7]; Alopecurus myosuroides, post-emergence, 360 h, Postemergence, 250 g ai/ha, scale 0 to 100 (0 no effect, 100 complete control), read-out: Plant response rating, Blackgrass) was 30%. The pest or weed control at 31 g/ha ([7]; Alopecurus myosuroides, pre-emergence, 360 h, Preemergence, scale 0 to 100 (0 no effect, 100 complete control), read-out: Plant response rating, Blackgrass) was 0% and the pest or weed control at 62 g/ha ([7]; Alopecurus myosuroides, pre-emergence, 360 h, Preemergence, 62 g ai/ha, scale 0 to 100, 0 no effect, 100 complete control, read-out: Plant response rating, Blackgrass) was 0%.
